Laboratory results reported in US12091411B2, “IRAK degraders and uses thereof” (Kymera Therapeutics, Inc., priority 2022, dated 2024).
Read-outs that look alike come from different tables or passages of the source.

Biological target: T1, IRAK4 (Homo sapiens, UniProt Q9NWZ3)
T1 construct: Degradation of IRAK4 in OCI-LY10 was quantitatively measured using Meso Scale Discovery technology; endogenous in cells; host or cells: OCI-LY10
T1 sequence (Q9NWZ3 1-460): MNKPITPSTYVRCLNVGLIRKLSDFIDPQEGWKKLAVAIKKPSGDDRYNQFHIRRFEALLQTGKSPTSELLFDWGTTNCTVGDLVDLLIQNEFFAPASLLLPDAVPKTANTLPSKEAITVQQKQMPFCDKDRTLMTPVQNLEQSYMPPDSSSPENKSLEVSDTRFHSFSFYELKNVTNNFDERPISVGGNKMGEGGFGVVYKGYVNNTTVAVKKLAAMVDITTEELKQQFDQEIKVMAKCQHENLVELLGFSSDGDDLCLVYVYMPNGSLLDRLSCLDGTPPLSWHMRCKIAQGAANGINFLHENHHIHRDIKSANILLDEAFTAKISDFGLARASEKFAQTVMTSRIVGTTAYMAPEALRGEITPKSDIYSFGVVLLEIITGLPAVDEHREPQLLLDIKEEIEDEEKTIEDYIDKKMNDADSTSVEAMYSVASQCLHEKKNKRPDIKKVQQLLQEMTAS
Test: IRAK4 MSD Degradation in OCI-LY10
Assay type: cell-based
Settings: OCI-LY10 cells, MSD
Experimental: Degradation of IRAK4 in OCI-LY10 was quantitatively measured using Meso Scale Discovery technology. […] Compounds were then added to the assay plates with a final top concentration of 1 to 10 μM in a 1:3 dilution series with total of 8 doses. The assay plates were then incubated for 4 to 24 hours at 37° C. under 5% CO2. […] To prepare MSD assay plates (Meso Scale Discovery Catalog number L15XA-3), the plates were coated with 2 μg/mL capture antibody (mouse Anti-IRAK4 antibody [2H9], ab119942) in PBS, at 40 μL/well. […] Cell lysates were then added to MSD assay plates and the plates were incubated at room temperature for 1 hour. The plates were then washed 3 times with 150 μL/well TBST buffer and 25 μL/well primary detection antibody (rabbit Anti-IRAK4 antibody [Y279], from Abcam. Catalog number ab32511, 1 μg/mL). The assay plates were then incubated at room temperature for 1 hour, washed 3 times with 150 μL/well TBST buffer and 25 μL/well secondary detection antibody, SULFO-TAG anti-rabbit antibody were added (anti-rabbit antibody from Meso Scale Discovery, Catalog number R32AB-1, 1 μg/mL). The assay plates were then incubated at room temperature for 1 hour, washed 3 times with 150 μL/well TBST buffer, and 150 μL/well MSD reading buffer (Meso Scale Discovery catalog number R92TC-2) was added. The plates were then analyzed by a MSD reader (Meso Scale Discovery, Model Quick Plex SQ 120). The data was then analyzed by software Prism 7.0 from GraphPad and the dose-depended IRAK4 degradation were fit using a three-parameter logistic equation to calculate DC50.
The letter codes for IRAK4 DC50 include: A (<0.01 μM); B (0.01 to <0.1 μM); C (0.1 to 0.2 μM); and D (>0.2 μM or not tested).

[1] = 4 hrs incubation, read-out: IRAK4 degradation in OCI-LY10 at 4 hrs: DC50
[2] = 24 hrs incubation, read-out: IRAK4 degradation in OCI-LY10 at 24 hrs: DC50

Row | DC50 [1] [nM] | DC50 [2] [nM] | SMILES
1 | > 200 | > 200 | Cn1c(=O)n(C2CCC(=O)NC2=O)c2cccc(C#CCC3CCN(C[C@H]4CC[C@H](n5cc(NC(=O)c6cnn7ccc(N8C[C@H]9CC8CO9)nc67)c(C(F)F)n5)CC4)CC3)c21 (stereo partly drawn) [I-15]
2 | < 10 | > 200 | Cn1c(=O)n(C2CCC(=O)NC2=O)c2cccc(C#CCCOC3CCN(C[C@H]4CC[C@H](n5cc(NC(=O)c6cnn7ccc(N8C[C@H]9C[C@@H]8CO9)nc67)c(C(F)F)n5)CC4)CC3)c21 (stereo partly drawn) [I-16]
3 | 10 to 100 | > 200 | Cn1c(=O)n(C2CCC(=O)NC2=O)c2cccc(C#CC3CCCN(C[C@H]4CC[C@H](n5cc(NC(=O)c6cnn7ccc(N8C[C@H]9C[C@@H]8CO9)nc67)c(C(F)F)n5)CC4)C3)c21 (stereo partly drawn) [I-17]
4 | 10 to 100 | > 200 | Cn1c(=O)n(C2CCC(=O)NC2=O)c2cccc(C#CCOC3CCN(C[C@H]4CC[C@H](n5cc(NC(=O)c6cnn7ccc(N8C[C@H]9C[C@@H]8CO9)nc67)c(C(F)F)n5)CC4)CC3(F)F)c21 (stereo partly drawn) [I-18]
5 | 100 to 200 | > 200 | Cn1c(=O)n(C2CCC(=O)NC2=O)c2cccc(C#CCOC3CC4CC3CN4C[C@H]3CC[C@H](n4cc(NC(=O)c5cnn6ccc(N7C[C@H]8C[C@@H]7CO8)nc56)c(C(F)F)n4)CC3)c21 (stereo partly drawn) [I-19]
6 | < 10 | > 200 | Cn1c(=O)n(C2CCC(=O)NC2=O)c2cccc(C#CCOC3CN(C[C@H]4CC[C@H](n5cc(NC(=O)c6cnn7ccc(N8C[C@H]9C[C@@H]8CO9)nc67)c(C(F)F)n5)CC4)C3)c21 (stereo partly drawn) [I-20]
7 | < 10 | > 200 | Cn1c(=O)n(C2CCC(=O)NC2=O)c2cccc(C#CCO[C@H]3CCN(C[C@H]4CC[C@H](n5cc(NC(=O)c6cnn7ccc(N8C[C@H]9C[C@@H]8CO9)nc67)c(C(F)F)n5)CC4)C3)c21 (stereo partly drawn) [I-21]
8 | 10 to 100 | > 200 | Cn1c(=O)n(C2CCC(=O)NC2=O)c2cccc(C#CCO[C@@H]3CCN(C[C@H]4CC[C@H](n5cc(NC(=O)c6cnn7ccc(N8C[C@H]9C[C@@H]8CO9)nc67)c(C(F)F)n5)CC4)C[C@@H]3F)c21 (stereo partly drawn) [I-22]
9 | 10 to 100 | > 200 | Cn1c(=O)n(C2CCC(=O)NC2=O)c2cccc(C#CCO[C@H]3CCN(C[C@H]4CC[C@H](n5cc(NC(=O)c6cnn7ccc(N8C[C@H]9C[C@@H]8CO9)nc67)c(C(F)F)n5)CC4)C[C@@H]3F)c21 (stereo partly drawn) [I-23]
10 | 10 to 100 | > 200 | Cn1c(=O)n(C2CCC(=O)NC2=O)c2cccc(C#CCO[C@@H]3CCN(C[C@H]4CC[C@H](n5cc(NC(=O)c6cnn7ccc(N8C[C@H]9C[C@@H]8CO9)nc67)c(C(F)F)n5)CC4)C3)c21 (stereo partly drawn) [I-24]
11 | 10 to 100 | < 10 | C[C@H]1CN(C[C@H]2CC[C@H](n3cc(NC(=O)c4cnn5ccc(N6C[C@H]7C[C@@H]6CO7)nc45)c(C(F)F)n3)CC2)CC[C@@H]1OCC#Cc1cccc2c1n(C)c(=O)n2C1CCC(=O)NC1=O (stereo partly drawn) [I-25]
12 | 10 to 100 | > 200 | C[C@H]1CN(C[C@H]2CC[C@H](n3cc(NC(=O)c4cnn5ccc(N6C[C@H]7C[C@@H]6CO7)nc45)c(C(F)F)n3)CC2)CC[C@H]1OCC#Cc1cccc2c1n(C)c(=O)n2C1CCC(=O)NC1=O (stereo partly drawn) [I-26]
13 | 10 to 100 | > 200 | Cn1c(=O)n(C2CCC(=O)NC2=O)c2cccc(C#CC3CN(C[C@H]4CC[C@H](n5cc(NC(=O)c6cnn7ccc(N8C[C@H]9C[C@@H]8CO9)nc67)c(C(F)F)n5)CC4)CCO3)c21 (stereo partly drawn) [I-27]
14 | < 10 | > 200 | Cn1c(=O)n(C2CCC(=O)NC2=O)c2cccc(C#CCOC3CCN(C[C@H]4C[C@H](n5cc(NC(=O)c6cnn7ccc(N8C[C@H]9C[C@@H]8CO9)nc67)c(C(F)F)n5)C4)CC3)c21 (stereo partly drawn) [I-28]
15 | < 10 | > 200 | C[C@H]1C[C@@H](OCC#Cc2cccc3c2n(C)c(=O)n3C2CCC(=O)NC2=O)CCN1C[C@H]1CC[C@H](n2cc(NC(=O)c3cnn4ccc(N5C[C@H]6C[C@@H]5CO6)nc34)c(C(F)F)n2)CC1 (stereo partly drawn) [I-29]
16 | 10 to 100 | > 200 | Cn1c(=O)n(C2CCC(=O)NC2=O)c2cccc(C#CCOC3C4CC3CN(C[C@H]3CC[C@H](n5cc(NC(=O)c6cnn7ccc(N8C[C@H]9C[C@@H]8CO9)nc67)c(C(F)F)n5)CC3)C4)c21 (stereo partly drawn) [I-30]
17 | < 10 | > 200 | Cn1c(=O)n(C2CCC(=O)NC2=O)c2cccc(C#CCN3CCN(C[C@H]4CC[C@H](n5cc(NC(=O)c6cnn7ccc(N8C[C@H]9C[C@@H]8CO9)nc67)c(C(F)F)n5)CC4)CC3)c21 (stereo partly drawn) [I-31, N-[3-(difluoromethyl)-1-[4-[[4-[3-[1-(2,6-dioxo-3-piperidyl)-3-methyl-2-oxo-benzimidazol-4-yl]prop-2-ynyl]piperazin-1-yl]methyl]cyclohexyl]pyrazol-4-yl]-5-[(1R,4R)-2-oxa-5-azabicyclo[2.2.1]heptan-5-yl]pyrazolo[1,5-a]pyrimidine-3-carboxamide]
18 | < 10 | > 200 | C[C@@H]1C[C@@H](OCC#Cc2cccc3c2n(C)c(=O)n3C2CCC(=O)NC2=O)CCN1C[C@H]1CC[C@H](n2cc(NC(=O)c3cnn4ccc(N5C[C@H]6C[C@@H]5CO6)nc34)c(C(F)F)n2)CC1 (stereo partly drawn) [I-33]
19 | 10 to 100 | > 200 | Cn1c(=O)n(C2CCC(=O)NC2=O)c2cccc(C#CCO[C@@H]3CCN(C[C@H]4CC[C@H](n5cc(NC(=O)c6cnn7ccc(N8C[C@H]9C[C@@H]8CO9)nc67)c(C(F)F)n5)CC4)C[C@@H]3F)c21 (stereo partly drawn) [I-35]
20 | 10 to 100 | > 200 | Cn1c(=O)n(C2CCC(=O)NC2=O)c2cccc(C#CCO[C@H]3CCN(C[C@H]4CC[C@H](n5cc(NC(=O)c6cnn7ccc(N8C[C@H]9C[C@@H]8CO9)nc67)c(C(F)F)n5)CC4)C[C@H]3F)c21 (stereo partly drawn) [I-36]
21 | < 10 | < 10 | C[C@H]1CN(C[C@H]2CC[C@H](n3cc(NC(=O)c4cnn5ccc(N6C[C@H]7C[C@@H]6CO7)nc45)c(C(F)F)n3)CC2)CC[C@@H]1OCC#Cc1cccc2c1n(C)c(=O)n2C1CCC(=O)NC1=O (stereo partly drawn) [I-37]
22 | < 10 | > 200 | COc1ccc2c(c1C#CCN1CCN(C[C@H]3CC[C@H](n4cc(NC(=O)c5cnn6ccc(N7C[C@H]8C[C@@H]7CO8)nc56)c(C(F)F)n4)CC3)CC1)n(C)c(=O)n2C1CCC(=O)NC1=O (stereo partly drawn) [I-39]
23 | < 10 | > 200 | Cn1c(=O)n(C2CCC(=O)NC2=O)c2cccc(C#CC3CCN(C[C@H]4CC[C@H](n5cc(NC(=O)c6cnn7ccc(N8C[C@H]9C[C@@H]8CO9)nc67)c(C(F)F)n5)CC4)CC3)c21 (stereo partly drawn) [I-40]
24 | < 10 | > 200 | O=C1CCN(c2cncc3c(C#CCO[C@@H]4CCN(C[C@H]5CC[C@H](n6cc(NC(=O)c7cnn8ccc(N9C[C@H]%10C[C@@H]9CO%10)nc78)c(C(F)F)n6)CC5)C[C@@H]4F)cccc23)C(=O)N1 [I-41]
25 | 10 to 100 | > 200 | C[C@@H]1CN(C[C@H]2CC[C@H](n3cc(NC(=O)c4cnn5ccc(N6C[C@H]7C[C@@H]6CO7)nc45)c(C(F)F)n3)CC2)CCN1CC#Cc1cccc2c1n(C)c(=O)n2C1CCC(=O)NC1=O (stereo partly drawn) [I-42]
26 | > 200 | > 200 | CN1C(=O)CCC(n2c(=O)n(C)c3c(C#CCN4CCN(C[C@H]5CC[C@H](n6cc(NC(=O)c7cnn8ccc(N9C[C@H]%10C[C@@H]9CO%10)nc78)c(C(F)F)n6)CC5)CC4)cccc32)C1=O (stereo partly drawn) [I-43]
27 | 10 to 100 | > 200 | Cn1c(=O)n(C2CCC(=O)NC2=O)c2cccc(C#CCN3CCN(C[C@H]4CC[C@H](n5cc(NC(=O)c6cnn7ccc(N8C[C@H]9OC[C@@H]8O9)nc67)c(C(F)F)n5)CC4)CC3)c21 (stereo partly drawn) [I-44]
28 | 10 to 100 | > 200 | Cn1c(=O)n(C2CCC(=O)NC2=O)c2cccc(C#CCN3C[C@H]4C[C@@H]3CN4C[C@H]3CC[C@H](n4cc(NC(=O)c5cnn6ccc(N7C[C@H]8C[C@@H]7CO8)nc56)c(C(F)F)n4)CC3)c21 (stereo partly drawn) [I-45]
29 | < 10 | > 200 | O=C1CCN(c2cncc3c(C#CCO[C@H]4CCN(C[C@H]5CC[C@H](n6cc(NC(=O)c7cnn8ccc(N9C[C@H]%10C[C@@H]9CO%10)nc78)c(C(F)F)n6)CC5)C[C@H]4F)cccc23)C(=O)N1 [I-46]
30 | > 200 | > 200 | C[C@H]1CN(C[C@H]2CC[C@H](n3cc(NC(=O)c4cnn5ccc(N6C[C@H]7C[C@@H]6CO7)nc45)c(C(F)F)n3)CC2)CC[C@@H]1OCC#Cc1cccc2c1n(C)c(=O)n2C1CCC(=O)N(C)C1=O (stereo partly drawn) [I-47]
